From patent publication US20250276078A1, “Camptothecin Derivative And Ligand-drug Conjugate Thereof” (Baili-Bio (Chengdu) Pharmaceutical Co., Ltd., priority 2020, published 2025) come the findings set out here.

A short description of series [1]: Log P value test (partition coefficient in n-octane (oil) and water). In kind it is physicochemical. The text has this: The log P values are closely related to water solubility, membrane permeability, in vivo ADME process and affinity between the compound and the receptor, which play a key role in the process of the compound's penetration through the biofilm. The log P value was obtained by testing the partition coefficient of camptothecin drug in n-octane (oil) and water, the results are shown as follows: […]

The test system of a further series is SW620. Description: Cell activity test of camptothecin chiral derivatives (MTS). In kind it is cell-based. The procedure: (§1) Cell-based in vitro experiments are used to determine cell survival, cytotoxicity and programmed cell death induced by camptothecin drugs disclosed in the present invention.
(§2) The in vitro efficacy of camptothecin was determined by cell proliferation test. CellTiter 96® Aqueous One Solution Cell Proliferation Assay is commercially available (Promega Corp., Madison, WI). CellTiter96® Aqueous One Solution Cell Proliferation Assay (a) is a test reagent that can be used to measure the number of viable cells from cell proliferation and cytotoxicity tests by colorimetric assay. The reagent contains a new tetrazolium compound [3-(4, 5-dimethylthiazol-2-yl)-5-(3-carboxymethoxyphenyl)-2-(4-sulfophenyl)-2h-Tetrazolium, inner salt; MTS] and an electron coupling agent (phenazine ethosulfate; PES). PES has enhanced chemical stability, which allows it to be mixed with MTS to form stable solutions. MTS (Owen's reagent) is reduced by cellular organisms into a variety of colored methylate products, which can be dissolved directly in the medium. This transformation is most likely accomplished with the help of NADPH or NADH produced by dehydrogenase in metabolically active cells. For detection, appropriate amount of CellTiter96® Aqueous One Solution Reagent is added directly into the medium of culture plate hole, incubated for 1-4 hours, and the absorbance value of 490 nm is read with enzyme label instrument.
(§3) The amount of methylate detected at 490 nm is proportional to the number of live cells in the culture. Due to the dissolubility of the methyls of MTS in tissue medium, CellTiter 96® Aqueous One Solution is performed with fewer steps than the MTT or INT methods.
(§4) The 96-well plates were uniformly inoculated with appropriate cell density and incubated at 37° C. in carbon dioxide incubator. 24 hours later, the cells were confirmed to be normal under the microscope, and camptothecin drugs were administered. Camptothecin drug was diluted in the medium (initial concentration was 1 uM, 7 times diluted, with 8 concentration points. The last two columns were control group (i.e., cell+medium, no drug treatment) and blank group (i.e., cell-free, only containing medium, for background subtraction). After fully mixing the drug, the drug was added into the corresponding cell hole and incubated at 37° C. in a carbon dioxide incubator for 3 days. After 3 days, 20 ul MTS (Promegm, G3581) were added to each well for 2 h, and a machine reader (from Molecular Device, model: SpectraMAX190) took readings at 490 nM. By detecting the activity of dehydrogenase in mitochondria, IC50 was calculated to evaluate the inhibitory effect of camptothecin on cell proliferation. The corresponding test results of camptothecin chiral derivative IC50 (nM) were as follows: PGP-99 T2

The next series deals with BxPc-3. The description is as above. The series is classed as cell-based. The procedure:
as §1, §2, §3, §4

Another series concerns A431. The series is described as above. In kind it is cell-based. The procedure: as §1, §2, §3, §4
A further series concerns SK-BR-3. The series is described as above. The series is classed as cell-based. The protocol: as §1, §2, §3, §4
In the next series the test system is MDA-MB-468. Described as above. In kind it is cell-based. The protocol:
as §1
as §2, with “The reagent contains a new tetrazolium compound [3-(4, 5-dimethylthiazol-2-yl)-5-(3-carboxymethoxyphenyl)-2-(4-sulfophenyl)-2h-Tetrazolium, inner salt; MTS] and an electron coupling agent (phenazine ethosulfate; PES).” left out
as §3
as §4, with “24 hours later, the cells were confirmed to be normal under the microscope, and camptothecin drugs were administered.” left out, “proliferation.” for “proliferation. The corresponding test results of camptothecin chiral derivative IC50 (nM) were as follows: PGP-99 T2”

Where [2] appears, read: Homo sapiens, SW-620, 72 h, SW620, 3 days, read-out: IC50.
Setting [3] is: Homo sapiens, 72 h, BxPc-3, 3 days, read-out: IC50.
Where [4] appears, read: Homo sapiens, A-431, 72 h, A431, 3 days, read-out: IC50.
The mark [5] stands for this setting: Homo sapiens, 72 h, SK-BR-3, 3 days, read-out: IC50.
Setting [6] is: Homo sapiens, MDA-MB-468, 72 h, read-out: IC50.

Read-outs that look alike come from different tables or passages of the source. Bounds are passed on as bounds.

On to `CC[C@@]1(O)C(=O)OCc2c1cc1n(c2=O)Cc2c-1nc1cc(F)c(C)c3c1c2[C@@H](NC(=O)[C@H](O)C1CC1)CC3` [Compound 16, reference compound], for which, in series [1] (LogP), the logD hydrocarbon water was 2.6.

Regarding `CC[C@@]1(O)C(=O)OCc2c1cc1n(c2=O)Cc2c-1nc1cc(F)c(C)c3c1c2[C@@H](NC(=O)CO)CC3` [Dxd, reference compound], the IC50 in the series with SW620 (SW620, 3 days, read-out: IC50) worked out at 1.95 nM; in the series with BxPc-3 (BxPc-3, 3 days, read-out: IC50), 3.97 nM; in the series on A431 (A431, 3 days, read-out: IC50) it was 4.99 nM; in the series with SK-BR-3 (SK-BR-3, 3 days, read-out: IC50), 19.7 nM; in the series with MDA-MB-468 (MDA-MB-468, 3 days, read-out: IC50), 10.7 nM.

As to `CC[C@@]1(O)C(=O)OCc2c1cc1n(c2=O)Cc2c-1nc1cc(F)c(C)c3c1c2[C@H](NC(=O)[C@@H](O)C1CC1)CC3` [Compound 7], the IC50 in the series with SW620 (setting [2]) is 0.894 nM; in the series on BxPc-3 (setting [3]), 0.801 nM; with A431 (setting [4]), 0.961 nM; in the series with SK-BR-3 (setting [5]), less than 0.01 nM; in the series on MDA-MB-468 (setting [6]) it was less than 0.001 nM. Further, the logD hydrocarbon water in series [1] (LogP) amounted to 1.7.

`CC[C@@]1(O)C(=O)OCc2c1cc1n(c2=O)Cc2c-1nc1cc(F)c(C)c3c1c2[C@@H](NC(=O)[C@@H](O)C1CC1)CC3` [Compound 15, reference compound] registered a logD hydrocarbon water in series [1] (LogP) of 2.7.

As for `CC[C@@]1(O)C(=O)OCc2c1cc1n(c2=O)Cc2c-1nc1cc(F)c(C)c3c1c2[C@@H](NC(=O)[C@H](O)C(F)(F)F)CC3` [Compound 13, reference compound], in series [1], the LogP worked out at 2.6.

With `CC[C@@]1(O)C(=O)OCc2c1cc1n(c2=O)Cc2c-1nc1cc(F)c(C)c3c1c2[C@@H](NC(=O)[C@H](O)C(F)(F)F)CC3` [Compound 5], the 50% inhibitory concentration (IC50) in the series with SW620 (setting [2]) is 0.866 nM; in the series with BxPc-3 (setting [3]), 1.73 nM; in the series on A431 (setting [4]) it was 2.83 nM; in the series with SK-BR-3 (setting [5]), 8.49 nM; in the series with MDA-MB-468 (setting [6]), 8.91 nM. The molecule further gave a logD hydrocarbon water in series [1] (LogP) of 1.9.

As to `CC[C@@]1(O)C(=O)OCc2c1cc1n(c2=O)Cc2c-1nc1cc(F)c(C)c3c1c2[C@H](NC(=O)[C@@H](C)O)CC3` [Compound 4], the IC50 in the series on SW620 (setting [2]) is 0.92 nM; with BxPc-3 (setting [3]) it was 2.85 nM; in the series on A431 (setting [4]), 3.1 nM. In series [1] (LogP), this molecule registered a logD hydrocarbon water of 1.9.

Turning to `CC[C@@]1(O)C(=O)OCc2c1cc1n(c2=O)Cc2c-1nc1cc(F)c(C)c3c1c2[C@H](NC(=O)[C@H](O)C1CC1)CC3` [Compound 8], the IC50 is 1.18 nM with SW620 (setting [2]); 1.1 nM in the series with BxPc-3 (setting [3]); 1.84 nM in the series on A431 (setting [4]); less than 0.01 nM in the series with SK-BR-3 (setting [5]); less than 0.001 nM in the series on MDA-MB-468 (setting [6]). This molecule had a logD hydrocarbon water in series [1] (LogP) of 1.8.

`CC[C@@]1(O)C(=O)OCc2c1cc1n(c2=O)Cc2c-1nc1cc(F)c(C)c3c1c2[C@@H](NC(=O)[C@@H](C)O)CC3` [Compound 12, reference compound] showed a logD hydrocarbon water in series [1] (LogP) of 2.5.

For the molecule `CC[C@@]1(O)C(=O)OCc2c1cc1n(c2=O)Cc2c-1nc1cc(F)c(C)c3c1c2[C@H](NC(=O)[C@H](C)O)CC3` [Compound 3], the IC50 in the series on SW620 (setting [2]) came to 1.29 nM; in the series on BxPc-3 (setting [3]), 3.66 nM; in the series with A431 (setting [4]), 4.19 nM; in the series with SK-BR-3 (setting [5]) it was 15 nM; with MDA-MB-468 (setting [6]), 0.22 nM. The logD hydrocarbon water in series [1] (LogP) was found to be 1.6.

For `CC[C@@]1(O)C(=O)OCc2c1cc1n(c2=O)Cc2c-1nc1cc(F)c(C)c3c1c2[C@H](NC(=O)C1(CO)CCC1)CC3` [Compound 9], the IC50 in the series on SW620 (setting [2]) turned out to be 1.11 nM; in the series with BxPc-3 (setting [3]) it was 1.07 nM; with A431 (setting [4]), 1.52 nM; in the series with SK-BR-3 (setting [5]) it was 7.32 nM; with MDA-MB-468 (setting [6]) it was 0.525 nM. This molecule also yielded a logD hydrocarbon water in series [1] (LogP) of 1.6.

With `CC[C@@]1(O)C(=O)OCc2c1cc1n(c2=O)Cc2c-1nc1cc(F)c(C)c3c1c2[C@H](NC(=O)CO)CC3` [Compound 2], the IC50 with SW620 (Homo sapiens, SW-620, 72 h) worked out at 2.89 nM; in the series with BxPc-3 (Homo sapiens, BXPC-3, 72 h), 4 nM; in the series with A431 (Homo sapiens, A-431, 72 h), 4.5 nM; in the series on SK-BR-3 (Homo sapiens, SK-BR-3, 72 h), 1.78 nM; in the series on MDA-MB-468 (Homo sapiens, MDA-MB-468, 72 h), 0.002 nM. The logD hydrocarbon water in series [1] (n-octane (oil) / water, read-out: LogP) was 1.8.

The molecule `CC[C@@]1(O)C(=O)OCc2c1cc1n(c2=O)Cc2c-1nc1cc(F)c(C)c3c1c2[C@@H](NC(=O)[C@H](C)O)CC3` [Compound 11, reference compound] returned a logD hydrocarbon water in series [1] (LogP) of 2.5.

The molecule `CC[C@@]1(O)C(=O)OCc2c1cc1n(c2=O)Cc2c-1nc1cc(F)c(C)c3c1c2[C@@H](NC(=O)[C@@H](O)C(F)(F)F)CC3` [Compound 14, reference compound] registered a logD hydrocarbon water in series [1] (LogP) of 2.6.

Consider `CC[C@@]1(O)C(=O)OCc2c1cc1n(c2=O)Cc2c-1nc1cc(F)c(C)c3c1c2[C@H](NC(=O)[C@@H](O)C(F)(F)F)CC3` [Compound 6], for which the IC50 with SW620 (setting [2]) came out at 0.093 nM; with BxPc-3 (setting [3]), 0.416 nM; in the series with A431 (setting [4]) it was 0.689 nM; in the series with SK-BR-3 (setting [5]) it was 9.1 nM. In series [1] (LogP), this molecule showed a logD hydrocarbon water of 1.9.

A word on the IC50: it is the concentration that gives 50% inhibition. What is called LogP is the decadic logarithm of the partition coefficient of the neutral form, usually between octanol and water. Read a low LogP as lower lipophilicity.
